Assay results reported in PubChem BioAssay (NCI).
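Five compound concentrations were applied to cells in 96-well plates for 48 hours; endpoints were derived by simple linear interpolation of the resulting dose-response curve. At the TGI there is no net growth.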

What was measured:
Assay in all cases: DTP human tumour cell line panel, 48 h
A498 renal = test system: A498 renal
HCT-116 colon = test system: HCT-116 colon
HT29 colon = test system: HT29 colon
MDA-MB-435 = test system: MDA-MB-435
NCI-H23 lung = test system: NCI-H23 lung
NCI/ADR-RES ovarian = test system: NCI/ADR-RES ovarian

## O=C(OCC1OC2OC(c3ccccc3)(n3ccc4c([N+](=O)[O-])ccnc43)OC2C1OC(=O)c1ccccc1)c1ccccc1 (stereo unspecified)
A498 renal
  TGI: > 100 µM
HCT-116 colon
  TGI: > 100 µM
HT29 colon
  TGI: > 100 µM
MDA-MB-435
  TGI: > 100 µM
NCI-H23 lung
  TGI: > 100 µM
NCI/ADR-RES ovarian
  TGI: > 100 µM

## CN(C)c1ccc(C2SCC(=O)N2NS(=O)(=O)c2cccc(C(=O)O)c2)cc1 (stereo unspecified)
HCT-116 colon
  TGI: > 100 µM
HT29 colon
  TGI: > 100 µM
MDA-MB-435
  TGI: > 100 µM
NCI-H23 lung
  TGI: > 100 µM

## O=c1nc2c(c(-c3ccccc3Cl)[nH]1)COC/C2=C\c1ccccc1Cl
A498 renal
  TGI: > 100 µM
HCT-116 colon
  TGI: > 100 µM
HT29 colon
  TGI: > 100 µM
MDA-MB-435
  TGI: > 100 µM
NCI-H23 lung
  TGI: > 100 µM
NCI/ADR-RES ovarian
  TGI: > 100 µM

## CCOC(=O)c1ccc(N2C(=S)N(C(=O)c3ccccc3)C(=Nc3ccccc3)C2=Nc2ccccc2)cc1
HT29 colon
  TGI: > 100 µM
MDA-MB-435
  TGI: > 100 µM
NCI-H23 lung
  TGI: > 100 µM
NCI/ADR-RES ovarian
  TGI: > 100 µM

## O=C(O)CC[N+]1=CCC(c2ccccc2)(c2ccccc2)O1
A498 renal
  TGI: > 100 µM
HCT-116 colon
  TGI: > 100 µM
HT29 colon
  TGI: > 100 µM
MDA-MB-435
  TGI: > 100 µM
NCI-H23 lung
  TGI: > 100 µM

## CCC1(C(=O)OC(C)(C)C)OC12C(C)CCCC2C (stereo unspecified)
A498 renal
  TGI: > 100 µM
HCT-116 colon
  TGI: > 100 µM
HT29 colon
  TGI: > 100 µM
MDA-MB-435
  TGI: > 100 µM
NCI-H23 lung
  TGI: > 100 µM
NCI/ADR-RES ovarian
  TGI: > 100 µM

## COc1ccc(Nc2nc(NS(=O)(=O)c3cc(C)c(Cl)cc3S)n[nH]2)cc1
A498 renal
  TGI: > 100 µM
HCT-116 colon
  TGI: > 100 µM
HT29 colon
  TGI: > 100 µM
MDA-MB-435
  TGI: > 100 µM
NCI-H23 lung
  TGI: > 100 µM
NCI/ADR-RES ovarian
  TGI: > 100 µM

## CCc1ccc2oc(-c3cc(O)c(-c4nc5cc(CC)ccc5o4)cc3O)nc2c1
A498 renal
  TGI: > 100 µM
HCT-116 colon
  TGI: > 100 µM
MDA-MB-435
  TGI: > 100 µM
NCI-H23 lung
  TGI: > 100 µM
NCI/ADR-RES ovarian
  TGI: > 100 µM

## COC(=O)C1=C2SCc3cccc(c3)CSC3=C(C(=O)OC)SC(=C(S2)S1)S3
A498 renal
  TGI: > 100 µM
HCT-116 colon
  TGI: > 100 µM
MDA-MB-435
  TGI: > 100 µM

## COC(=O)[C@H](Cc1ccccc1)NC(=O)[C@H](Cc1ccccc1)NC(=O)[C@@H]1CCCN1C(=O)N[C@H]1C2C=CC(C2)C1C(=O)N1CCC[C@H]1C(=O)N[C@@H](C)C(=O)N[C@H](C(=O)OC)C(C)C (stereo partly specified)
A498 renal
  TGI: > 100 µM
HCT-116 colon
  TGI: > 100 µM
HT29 colon
  TGI: > 100 µM
MDA-MB-435
  TGI: > 100 µM
NCI-H23 lung
  TGI: > 100 µM
NCI/ADR-RES ovarian
  TGI: > 100 µM

## CN(C)Cc1cc(C(=O)/C=C/c2ccccc2Cl)cc(CN(C)C)c1O
A498 renal
  TGI: 29.5 µM
HCT-116 colon
  TGI: 19.8 µM
HT29 colon
  TGI: 9.94 µM
MDA-MB-435
  TGI: 26.3 µM
NCI-H23 lung
  TGI: 35 µM
NCI/ADR-RES ovarian
  TGI: 63.6 µM

## CC1=NN(c2ccc(S(=O)(=O)O)cc2)C2(C1)SCC(=O)N2c1nc2ccccc2s1 (stereo unspecified)
A498 renal
  TGI: > 100 µM
HCT-116 colon
  TGI: > 100 µM
HT29 colon
  TGI: > 100 µM
MDA-MB-435
  TGI: > 100 µM
NCI-H23 lung
  TGI: > 100 µM
NCI/ADR-RES ovarian
  TGI: > 100 µM

## COC(=O)[C@@H]1CCCN1CCN1CCC[C@H]1C(=O)OC
A498 renal
  TGI: > 100 µM
HCT-116 colon
  TGI: > 100 µM
HT29 colon
  TGI: > 100 µM
MDA-MB-435
  TGI: > 100 µM
NCI-H23 lung
  TGI: > 100 µM
NCI/ADR-RES ovarian
  TGI: > 100 µM

## O=C(NCCCCCCNCc1cccc2ccccc12)Nc1cccc2ccccc12
A498 renal
  TGI: > 100 µM
HCT-116 colon
  TGI: > 100 µM
HT29 colon
  TGI: > 100 µM
MDA-MB-435
  TGI: > 100 µM
NCI-H23 lung
  TGI: > 100 µM
NCI/ADR-RES ovarian
  TGI: > 100 µM

## Cc1ccc([C@H]2CC(=O)C[C@H](c3ccc(C)cc3)C23C(=O)c2ccccc2C3=O)cc1
A498 renal
  TGI: > 100 µM
HCT-116 colon
  TGI: > 100 µM
HT29 colon
  TGI: > 100 µM
MDA-MB-435
  TGI: > 100 µM
NCI-H23 lung
  TGI: > 100 µM
NCI/ADR-RES ovarian
  TGI: 30.2 µM

## CC1Cn2c(nc3ccccc32)NC1=O (stereo unspecified)
A498 renal
  TGI: > 100 µM
HCT-116 colon
  TGI: > 100 µM
HT29 colon
  TGI: > 100 µM
MDA-MB-435
  TGI: > 100 µM
NCI-H23 lung
  TGI: > 100 µM
NCI/ADR-RES ovarian
  TGI: > 100 µM

## O=C1CCCCC(=O)OC2(CCCCC2=O)CC1 (stereo unspecified)
A498 renal
  TGI: > 100 µM
HCT-116 colon
  TGI: > 100 µM
HT29 colon
  TGI: > 100 µM
MDA-MB-435
  TGI: > 100 µM
NCI-H23 lung
  TGI: > 100 µM
NCI/ADR-RES ovarian
  TGI: > 100 µM

## O=C(O)c1ccc(S(=O)(=O)c2ccccc2[N+](=O)[O-])cc1
A498 renal
  TGI: > 10 µM
HCT-116 colon
  TGI: > 10 µM
HT29 colon
  TGI: > 10 µM
MDA-MB-435
  TGI: > 10 µM
NCI-H23 lung
  TGI: > 10 µM
NCI/ADR-RES ovarian
  TGI: > 10 µM

## NC(=O)NNC(=O)c1nc[nH]c1[N+](=O)[O-]
A498 renal
  TGI: > 100 µM
HCT-116 colon
  TGI: > 100 µM
HT29 colon
  TGI: > 100 µM
MDA-MB-435
  TGI: > 100 µM
NCI-H23 lung
  TGI: > 100 µM
NCI/ADR-RES ovarian
  TGI: > 100 µM

## Cc1ccc2c(c1)[nH]c1cc(C(F)(F)F)ccc1[p+]2=O (stereo unspecified)
A498 renal
  TGI: 74.5 µM
HCT-116 colon
  TGI: > 100 µM
HT29 colon
  TGI: > 100 µM
MDA-MB-435
  TGI: > 100 µM
NCI-H23 lung
  TGI: > 100 µM
NCI/ADR-RES ovarian
  TGI: > 100 µM

## Cc1ccc2nc(Cl)c(/C=N/N3C(=O)/C(=C/c4ccccc4S)N=C3c3ccccc3)cc2c1
A498 renal
  TGI: > 100 µM
HCT-116 colon
  TGI: > 100 µM
HT29 colon
  TGI: > 100 µM
MDA-MB-435
  TGI: 31.8 µM
NCI/ADR-RES ovarian
  TGI: 76.5 µM

## O=C1c2ccccc2-c2nc(-c3cccc([N+](=O)[O-])c3)nnc21
HCT-116 colon
  TGI: > 100 µM
HT29 colon
  TGI: 5.43 µM
MDA-MB-435
  TGI: 4.05 µM
NCI-H23 lung
  TGI: 50.5 µM
NCI/ADR-RES ovarian
  TGI: 37 µM

## C1CNCCNCCN1
A498 renal
  TGI: > 100 µM
HCT-116 colon
  TGI: > 100 µM
HT29 colon
  TGI: > 100 µM
MDA-MB-435
  TGI: > 100 µM
NCI-H23 lung
  TGI: > 100 µM
NCI/ADR-RES ovarian
  TGI: > 100 µM

## CCCCCC(=O)NC(=S)Nc1nn[nH]n1
A498 renal
  TGI: > 100 µM
HCT-116 colon
  TGI: > 100 µM
MDA-MB-435
  TGI: > 100 µM
NCI-H23 lung
  TGI: > 100 µM

## CCCSc1ccc2[nH]c(/N=C/c3ccco3)cc2c1
A498 renal
  TGI: > 100 µM
HCT-116 colon
  TGI: > 100 µM
HT29 colon
  TGI: > 100 µM
MDA-MB-435
  TGI: > 100 µM
NCI-H23 lung
  TGI: > 100 µM
NCI/ADR-RES ovarian
  TGI: > 100 µM

## CN(O)C(=O)c1cccc(Cl)c1
A498 renal
  TGI: > 100 µM
HCT-116 colon
  TGI: > 100 µM
HT29 colon
  TGI: > 100 µM
MDA-MB-435
  TGI: > 100 µM
NCI-H23 lung
  TGI: > 100 µM
NCI/ADR-RES ovarian
  TGI: > 100 µM

## O=c1oc2ccccc2c(Nc2ccc3c(c2)Oc2ccccc2O3)c1[N+](=O)[O-]
A498 renal
  TGI: 59 µM
HCT-116 colon
  TGI: > 100 µM
HT29 colon
  TGI: > 100 µM
MDA-MB-435
  TGI: > 100 µM
NCI-H23 lung
  TGI: 46.1 µM
NCI/ADR-RES ovarian
  TGI: 69.4 µM

## CCN1C(=O)C(=C/C=C/c2ccc([N+](=O)[O-])cc2)C(=O)N(CC)C1=S
HCT-116 colon
  TGI: 31.9 µM
HT29 colon
  TGI: 50.7 µM
MDA-MB-435
  TGI: 47.7 µM
NCI-H23 lung
  TGI: 32.8 µM
NCI/ADR-RES ovarian
  TGI: 45.2 µM

## NCCSc1nc2ccccc2c(=O)n1-c1ccccc1
A498 renal
  TGI: > 100 µM
HCT-116 colon
  TGI: > 100 µM
HT29 colon
  TGI: > 100 µM
MDA-MB-435
  TGI: > 100 µM
NCI-H23 lung
  TGI: > 100 µM
NCI/ADR-RES ovarian
  TGI: > 100 µM

## C[C@H](N)C(=O)Nc1ccc(-c2nc3ccccc3s2)cc1
A498 renal
  TGI: 90 µM
HCT-116 colon
  TGI: 28.5 µM
HT29 colon
  TGI: 38.2 µM
MDA-MB-435
  TGI: 30.7 µM
NCI-H23 lung
  TGI: > 100 µM
NCI/ADR-RES ovarian
  TGI: > 100 µM

## Cc1cc(C2(O)C=C(C(C)(C)C)C(=O)C(C(C)(C)C)=C2)c(C)cc1C1(O)C=C(C(C)(C)C)C(=O)C(C(C)(C)C)=C1
HCT-116 colon
  TGI: > 100 µM
HT29 colon
  TGI: > 100 µM
NCI-H23 lung
  TGI: > 100 µM
NCI/ADR-RES ovarian
  TGI: > 100 µM

## O=C(Cc1ccccc1)NN1C(=O)/C(=C\c2cccc(O)c2)SC1=Nc1ccccc1
A498 renal
  TGI: > 100 µM
HCT-116 colon
  TGI: > 100 µM
HT29 colon
  TGI: > 100 µM
MDA-MB-435
  TGI: > 100 µM
NCI-H23 lung
  TGI: > 100 µM
NCI/ADR-RES ovarian
  TGI: > 100 µM
